Source: US4138485A, “Phenylalanine derivatives” (Kyowa Hakko Kogyo Kabushiki Kaisha, priority 1976, dated 1979)

Legend:
[1] = tested on: hyperlipemia induced by Triton; assay: Cholesterol-lowering activity on hyperlipemia induced by Triton in mice; type: in vivo, mice (male dd-strain); conditions: Mus musculus, po, 43 h, read-out: Ratio of the reduction of cholesterol
Description: (2) Cholesterol-Lowering activity on hyperlipemia induced by Triton in mice:
38 Groups, each consisting of 9 mice (male dd-strain, weight -- 19 to 21 g), were used for the test and control groups. […] Immediately after the administration and also after 20 hours from the administration of Triton, the mice were orally administered with 100 mg/kg of the compound shown in Table 3. 43 hours after the administration of Triton, the blood samples were collected by decapitation and then the corpuscle was removed by centrifugation. Cholesterol in the serum was determined by Zurkowski's method modified by Shibata (color of the test solution was developed by using sulfoalicyclic acid, acetic acid and sulfuric acid and the optical density of the solution was determined at 620 mμ.

Acute toxicity in mice = conditions: in vivo, mouse, after one week
Description: (§1) (1) Acute toxicity and tonic convulsion in hind paw:
(§2) The acute toxicity and tonic convulsion occured by stimulus by hand touch were determined in the following manner to give the results shown in Table 2.
(a) Acute toxicity in mice:
38 Groups, each consisting of 5 mice (male dd-strain, weight -- 18 to 24 g), were used for the test and control groups. The compounds shown in Table 2 were administered orally or intraperitoneally to the mice. After one week, the survival ratio was measured.

Cholesterol in the serum = assay: Cholesterol-lowering activity on normal rats of Wistar strain (serum cholesterol, liver weight); type: in vivo, rats (male Wistar strain); conditions: continuous administration for 4 days, 0.3% in diet
Description: (3) Cholesteral-lowering activity on normal rats of Wistar strain:
(i) 22 Groups, each consisting of 5 rats (male Wistar strain, weight -- 150 to 180 g) were used for the test and control groups. After this, the blood samples were collected by decapitation and then the corpuscle was removed by centrifugation. Cholesterol in the serum was determined by Zurkowski's method modified by Shibata and also the liver was excised and weighed. The results are shown in Table 4 wherein the ratio of 100% denotes the amount of chloresterol and the weight of the liver of normal rats fed with powdery diet without the addition of the compound.

Acute toxicity in rats = conditions: in vivo; rat, oral administration, after one week; read-out: Acute Toxicity (LD50), C
Description: as §1, §2
(b) Acute toxicity in rats:
28 Groups, each consisting of 5 rats (male Wistar strain, weight -- 200 g), were used for the test and control groups. The compounds shown in Table 2 were orally administered to the rats. After one week, the survival ratio was measured.

[2] = oral administration, read-out: Acute Toxicity (LD50), A
[3] = ip, intraperitoneal administration, read-out: Acute Toxicity (LD50), B

SMILES | inhibition in vivo at 100 mg/kg [1] [%] | LD50 at 168 h (Acute toxicity in mice; [2]) [mg/kg] | B - Ratio of decrease of liver weight (Cholesterol in the serum) [%] | LD50 at 168 h (Acute toxicity in rats) [mg/kg] | LD50 at 168 h (Acute toxicity in mice; [3]) [mg/kg]
COC(=O)C(Cc1ccccc1)NC(=O)SCc1ccccc1 (racemic) [Compound 19, N-benzylthiocarbonyl-D,L-phenylalanine methylester] | 84 | > 1000 | 19.8 | > 100 | –
Cc1ccc(CSC(=O)NC(Cc2ccccc2)C(=O)O)cc1 (racemic) [Compound 35, N-(4-methylbenzylthiocarbonyl)-DL-phenylalanine] | 22 | > 1000 | – | – | –
CCOC(=O)[C@H](Cc1ccccc1)NC(=O)SCc1ccc(C)cc1 [Compound 3, N-(4-methylbenzylthiocarbonyl)-L-phenylalanine ethylester] | 57 | > 1000 | – | – | –
Cc1ccc(CSC(=O)N[C@@H](Cc2ccccc2)C(N)=O)cc1 [Compound 4, N-(4-methylbenzylthiocarbonyl)-L-phenylalanine amide] | 23 | > 1000 | 6.2 | > 100 | > 100
CCNC(=O)[C@H](Cc1ccccc1)NC(=O)SCc1ccc(C)cc1 [Compound 5, N-(4-methylbenzylthiocarbonyl)-L-phenylalanine ethylamide] | 0 | > 1000 | – | > 100 | > 100
COC(=O)[C@H](Cc1ccccc1)NC(=O)[C@H](Cc1ccccc1)NC(=O)SCc1ccc(C)cc1 [Compound 6, N-(4-methylbenzylthiocarbonyl)-L-phenylalanyl-L-phenylalanine methylester] | 39 | > 300 | – | > 100 | > 100
O=C(N[C@@H](Cc1ccccc1)C(=O)O)SCc1ccc(Cl)cc1 [Compound 7, N-(4-chlorobenzylthiocarbonyl)-L-phenylalanine] | 94 | > 300 | – | > 100 | > 100
COC(=O)[C@H](Cc1ccccc1)NC(=O)SCc1ccc(Cl)cc1 [Compound 8, N-(4-chlorobenzylthiocarbonyl)-L-phenylalanine methylester] | 88 | > 4000 | – | > 200 | > 100
NC(=O)[C@H](Cc1ccccc1)NC(=O)SCc1ccc(Cl)cc1 [Compound 9, N-(4-chlorobenzylthiocarbonyl)-L-phenylalanine amide] | 57 | > 1000 | 71 | > 100 | > 100
CCNC(=O)[C@H](Cc1ccccc1)NC(=O)SCc1ccc(Cl)cc1 [Compound 10, N-(4-chlorobenzylthiocarbonyl)-L-phenylalanine ethylamide] | 43 | > 300 | – | > 100 | > 100
COC(=O)[C@H](Cc1ccccc1)NC(=O)[C@H](Cc1ccccc1)NC(=O)SCc1ccc(Cl)cc1 [Compound 11, N-(4-chlorobenzylthiocarbonyl)-L-phenylalanyl-L-phenylalanine methylester] | 75 | > 300 | – | > 100 | > 100
COC(=O)[C@H](Cc1ccccc1)NC(=O)SCc1ccc(OC)cc1 [Compound 13, N-(4-methoxybenzylthiocarbonyl)-L-phenylalanine methylester] | 56 | > 1000 | 38 | > 100 | > 100
O=C(N[C@@H](Cc1ccccc1)C(=O)O)SCc1ccc([N+](=O)[O-])cc1 [Compound 14, N-(4-nitrobenzylthiocarbonyl)-L-phenylalanine] | 66 | > 1000 | 48.0 | > 100 | –
COC(=O)[C@H](Cc1ccccc1)NC(=O)SCc1ccc([N+](=O)[O-])cc1 [Compound 15, N-(4-nitrobenzylthiocarbonyl)-L-phenylalanine methylester] | 29 | > 1000 | 38.9 | > 100 | –
COC(=O)[C@H](Cc1ccccc1)NC(=O)SCc1cccc(C)c1 [Compound 23, N-(3-methylbenzylthiocarbonyl)-L-phenylalanine methylester] | 48 | > 1000 | – | – | –
Cc1cccc(C)c1CSC(=O)N[C@@H](Cc1ccccc1)C(=O)O [Compound 24, N-(2,6-dimethylbenzylthiocarbonyl)-L-phenylalanine] | 34 | > 1000 | 15.0 | > 100 | –
COC(=O)[C@H](Cc1ccccc1)NC(=O)SCc1c(C)cccc1C [Compound 25] | 37 | > 1000 | 45.3 | > 100 | –
Cc1ccc(C)c(CSC(=O)N[C@@H](Cc2ccccc2)C(=O)O)c1 [Compound 26, N-(2,5-dimethylbenzylthiocarbonyl)-L-phenylalanine] | 43 | > 1000 | 0.8 | > 100 | –
COC(=O)[C@H](Cc1ccccc1)NC(=O)SCc1cc(C)ccc1C [Compound 27, N-(2,5-dimethylbenzylthiocarbonyl)-L-phenylalanine methylester] | 30 | > 1000 | -0.2 | > 100 | –
CC(C)(C)c1ccc(CSC(=O)N[C@@H](Cc2ccccc2)C(=O)O)cc1 [Compound 28, N-(4-tert-butylbenzylthiocarbonyl)-L-phenylalanine] | 50 | > 1000 | 10.6 | > 100 | –
Cc1c(C)c(C)c(CSC(=O)N[C@@H](Cc2ccccc2)C(=O)O)c(C)c1C [Compound 29, N-(2,3,4,5,6-pentamethylbenzylthiocarbonyl)-L-phenylalanine] | 59 | > 1000 | – | > 100 | –
COC(=O)[C@H](Cc1ccccc1)NC(=O)SCc1c(C)c(C)c(C)c(C)c1C [Compound 30, N-(2,3,4,5,6-pentamethylbenzylthiocarbonyl)-L-phenylalanine methylester] | 68 | > 1000 | 11.0 | > 100 | –
O=C(N[C@@H](Cc1ccccc1)C(=O)O)SCc1cccc2ccccc12 [Compound 31, N-(α-naphthylmethylthiocarbonyl)-L-phenylalanine] | 74 | > 1000 | 24.4 | > 100 | –
COC(=O)[C@H](Cc1ccccc1)NC(=O)SCc1cccc2ccccc12 [Compound 32] | 56 | > 1000 | 12.4 | > 100 | –
O=C(N[C@@H](Cc1ccccc1)C(=O)O)SCc1ccc(F)cc1 [Compound 33, N-(4-fluorobenzylthiocarbonyl)-L-phenylalanine] | 79 | > 1000 | – | – | –
Cc1ccc(CSC(=O)N[C@H](Cc2ccccc2)C(=O)O)cc1 [Compound 34, N-(4-methylbenzylthiocarbonyl)-D-phenylalanine] | 11 | > 1000 | – | – | –
CC(=O)Oc1ccc(CSC(=O)N[C@@H](Cc2ccccc2)C(=O)O)cc1 [Compound 36, N-(4-acetoxybenzylthiocarbonyl)-L-phenylalanine] | 83 | > 1000 | – | – | –
COC(=O)[C@H](Cc1ccccc1)NC(=O)SCc1ccc(O)cc1 [Compound 37, N-(4-hydroxybenzylthiocarbonyl)-L-phenylalanine methylester] | 74 | > 1000 | – | – | –
